Data set [1] deals with T1, human amylin receptor (membranes from Amylin 3(a)/CRE-luc cells) (Homo sapiens, UniProt O60896+P30988).
T1 construct: expressed in transfected cells
T1 sequence (P30988 25-474): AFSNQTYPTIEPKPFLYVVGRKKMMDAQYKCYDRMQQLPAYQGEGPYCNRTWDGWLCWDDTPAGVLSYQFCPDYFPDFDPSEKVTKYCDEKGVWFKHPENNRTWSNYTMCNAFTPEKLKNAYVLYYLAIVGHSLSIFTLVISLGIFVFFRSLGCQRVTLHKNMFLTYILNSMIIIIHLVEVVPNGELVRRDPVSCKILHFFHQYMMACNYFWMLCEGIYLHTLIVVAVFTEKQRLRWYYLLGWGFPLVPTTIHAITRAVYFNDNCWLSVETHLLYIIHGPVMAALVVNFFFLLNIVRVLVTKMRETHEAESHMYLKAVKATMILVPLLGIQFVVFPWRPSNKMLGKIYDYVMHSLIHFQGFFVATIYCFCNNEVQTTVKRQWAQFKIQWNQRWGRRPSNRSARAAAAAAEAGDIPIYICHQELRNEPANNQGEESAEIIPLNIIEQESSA
T1 sequence (O60896 24-148 partner): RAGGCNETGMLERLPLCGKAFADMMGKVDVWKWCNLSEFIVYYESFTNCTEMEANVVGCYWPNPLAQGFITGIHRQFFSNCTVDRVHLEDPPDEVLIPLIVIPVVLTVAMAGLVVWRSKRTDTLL
The experiment in a line: ASSAY (V) binding to the human amylin receptor (SPA, 125I-rat amylin).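 Also: competition binding of cell membranes (35 ng/µL) mixed with SPA beads in 384-well plates at 40 µL total volume, read by scintillation counting.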

A short description of data set [2]: ASSAY (IV) determination of solubility. The class given is physicochemical. Summed up:
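Dissolve polypeptide in water ([…] stock); combine 1:1 with each 100 mM buffer (glycylglycine pH 3.0/4.0/5.0; bistrispropane pH 6.0/6.5/7.0/7.5/8.0); hold 18 hours at room temperature; centrifuge; quantify polypeptide by UPLC.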

In a further data set the test system is Sprague Dawley (SD) rats. The data set is described as follows: ASSAY (I) efficacy testing on appetite (food intake) using an ad libitum fed rat model. The class given is in vivo. The settings on record: rat, 30 nmol/kg. Summed up:
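Ad libitum fed SD rats (200–250 g) were housed singly on a reversed light/dark cycle and given one 0.01–3 mg/kg dose ip, po or sc just before lights-off, with 5–8 per dose group plus vehicle controls. Food intake was recorded hourly for 7 h, then at 24 h and sometimes 48 h; Grubbs outliers were excluded.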

Another data set deals with T2, rat calcitonin receptor (Rattus norvegicus, UniProt P32214).
T2 construct: expressed in transfected cells; host or cells: BHK tk'ts 13 (transient, FuGENE 6), membranes
T2 sequence (P32214 25-479 isoform P32214-2 limits assumed): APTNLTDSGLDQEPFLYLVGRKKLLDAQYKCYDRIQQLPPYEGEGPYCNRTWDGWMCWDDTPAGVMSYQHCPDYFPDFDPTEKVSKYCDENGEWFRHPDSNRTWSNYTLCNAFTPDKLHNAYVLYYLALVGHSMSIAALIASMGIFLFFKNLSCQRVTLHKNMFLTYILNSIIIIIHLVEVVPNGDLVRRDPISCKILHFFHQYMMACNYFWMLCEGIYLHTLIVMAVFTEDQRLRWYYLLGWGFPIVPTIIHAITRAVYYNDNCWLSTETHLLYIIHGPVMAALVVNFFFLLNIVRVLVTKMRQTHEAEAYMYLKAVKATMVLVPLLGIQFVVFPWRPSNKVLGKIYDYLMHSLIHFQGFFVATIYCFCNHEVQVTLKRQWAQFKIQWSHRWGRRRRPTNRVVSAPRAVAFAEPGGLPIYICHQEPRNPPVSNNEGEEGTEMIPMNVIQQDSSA
The experiment in a line: ASSAY (VIII) binding to the rat calcitonin receptor. The settings on record: Table 7, read-out: rCTR bind IC50. Summed up:
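Rat calcitonin receptor is expressed transiently in BHK tk′ts 13 cells cultured in DMEM with 10% FBS. Roughly two days (approximately 48 hours) post-transfection, cells are harvested for membrane preparation.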

[3] abbreviates: Table 5, selectivity, hCTR bind IC50 / hAmylin-R bind IC50.
The mark [4] stands for this setting: Table 5a, selectivity, hCTR bind IC50 / hAmylin-R bind IC50.
The mark [5] stands for this setting: Table 5b, selectivity, hCTR bind IC50 / hAmylin-R bind IC50.
Where [6] appears, read: Table 5c, selectivity, hCTR bind IC50 / hAmylin-R bind IC50.
[7] abbreviates: Table 7, human binding selectivity, included for comparison.
Setting [8] is: Table 7a (preferred compounds), human binding selectivity, included for comparison.
[9] abbreviates: ratio of human calcitonin receptor binding IC50 to human amylin receptor binding IC50.
Setting [10] is: bistrispropane buffer, pH 6.5, read-out: Solubility pH 6.5 Concentration.
Where [11] appears, read: bistrispropane buffer, pH 7.5, read-out: Solubility pH 7.5 Concentration.
Where [12] appears, read: bistrispropane buffer, pH 6.0, read-out: Solubility pH 6.0 Concentration.
[13] abbreviates: bistrispropane buffer, pH 7.0, read-out: Solubility pH 7.0 Concentration.
The mark [14] stands for this setting: bistrispropane buffer, pH 8.0, read-out: Solubility pH 8.0 Concentration.
Setting [15] is: glycylglycine buffer, pH 3.0, read-out: Solubility pH 3.0 Concentration.
Setting [16] is: glycylglycine buffer, pH 4.0, read-out: Solubility pH 4.0 Concentration.
The mark [17] stands for this setting: glycylglycine buffer, pH 5.0, read-out: Solubility pH 5.0 Concentration.

Like-named read-outs stand apart in the source and are kept apart here. Numbered stars: 1 amine (or outer) side, 2 acyl side, 3 side chain; on linkers, the order of the positions; unused ones are H or OH. Bridge positions count the residues as written; N and C are the ends. Side chains are listed from the residue outwards. Peptide text beside a SMILES is read from it. * marks the point of attachment. C20 diacid = O=C(O)CCCCCCCCCCCCCCCCCCC(=O)*; γGlu = O=C(O)[C@H](CCC(=O)[*:2])N[*:1] Some results are limits rather than exact numbers.

In general, IC50 refers to the concentration needed to halve the response being measured.

As for `CC[C@H](C)[C@H](NC(=O)[C@H](C)NC(=O)CNC(=O)[C@H](Cc1ccccc1)NC(=O)[C@H](CC(N)=O)NC(=O)[C@@H]1CCCN1C(=O)[C@H](CO)NC(=O)[C@H](CO)NC(=O)[C@H](Cc1c[nH]cn1)NC(=O)[C@H](CCCNC(=N)N)NC(=O)[C@H](CC(C)C)NC(=O)[C@H](Cc1ccccc1)NC(=O)[C@H](Cc1c[nH]cn1)NC(=O)[C@H](C)NC(=O)[C@H](CC(C)C)NC(=O)[C@H](CCCNC(=N)N)NC(=O)[C@H](CCC(N)=O)NC(=O)[C@@H](NC(=O)[C@H](C)NC(=O)[C@@H]1CSSC[C@H](NC(=O)[C@H](CCCCN)NC(=O)CC[C@H](NC(=O)CCCCCCCCCCCCCCCCCCC(=O)O)C(=O)O)C(=O)N[C@@H](CC(N)=O)C(=O)N[C@@H]([C@@H](C)O)C(=O)N[C@@H](C)C(=O)N[C@@H]([C@@H](C)O)C(=O)N1)[C@@H](C)O)C(=O)N1CCC[C@H]1C(=O)N[C@@H](CO)C(=O)N[C@@H](CO)C(=O)N[C@H](C(=O)N[C@@H](CC(N)=O)C(=O)N[C@H](C(=O)NCC(=O)N[C@@H](CO)C(=O)N[C@@H](CCC(=O)O)C(=O)N[C@H](C(=O)N[C@@H](Cc1ccc(O)cc1)C(N)=O)[C@@H](C)O)C(C)C)[C@@H](C)O` [Example 30] ({C20 diacid-γGlu}-KCNTATCATQRLAHFLRHSSPNFGAIPSSTNVGSETY-NH2; disulfide 2-7), the “Ratio hCT/hAmylin binding” value in data set [1] (setting [3]), in data set [1] (setting [4]), in data set [1] (setting [5]), in data set [1] (setting [6]), in data set [1] (setting [7]) and in data set [1] (setting [8]) was 23.6 each time. Besides, the “Ratio hCT/hAmylin binding” value in data set [1] (setting [9]) is 23.6. For the same molecule, the solubility at 18 h in data set [2] (setting [10]), in data set [2] (setting [11]), in data set [2] (setting [12]), in data set [2] (setting [13]), in data set [2] (setting [14]) and in data set [2] (setting [15]) was not below 200 µM in each case. For the same molecule, the solubility at 18 h in data set [2] (setting [16]) and in data set [2] (setting [17]) was not below 200 µM throughout. In addition, in the data set with Sprague Dawley (SD) rats, the “Food intake reduction 0-24 h 30 nmol/kg (%)” value is 41%. The “Food intake reduction 24-48 h 30 nmol/kg (%)” value with Sprague Dawley (SD) rats is reported as 17%. At rat calcitonin receptor, the IC50 turned out to be 0.114 µM.

On to `CC[C@H](C)[C@H](NC(=O)[C@H](C)NC(=O)CNC(=O)[C@H](Cc1ccccc1)NC(=O)[C@H](CC(N)=O)NC(=O)[C@@H]1CCCN1C(=O)[C@H](CO)NC(=O)[C@H](CO)NC(=O)[C@H](Cc1c[nH]cn1)NC(=O)[C@H](CCCNC(=N)N)NC(=O)[C@H](CC(C)C)NC(=O)[C@H](Cc1ccccc1)NC(=O)[C@H](CC(=O)O)NC(=O)[C@H](C)NC(=O)[C@H](CC(C)C)NC(=O)[C@H](CCCNC(=N)N)NC(=O)[C@H](CCC(N)=O)NC(=O)[C@@H](NC(=O)[C@H](C)NC(=O)[C@@H]1CSSC[C@H](NC(=O)[C@@H](N)CCCCNC(=O)CC[C@H](NC(=O)CC[C@H](NC(=O)CCCCCCCCCCCCCCCCCCC(=O)O)C(=O)O)C(=O)O)C(=O)N[C@@H](CC(N)=O)C(=O)N[C@@H]([C@@H](C)O)C(=O)N[C@@H](C)C(=O)N[C@@H]([C@@H](C)O)C(=O)N1)[C@@H](C)O)C(=O)N1CCC[C@H]1C(=O)N[C@@H](CO)C(=O)N[C@@H](CO)C(=O)N[C@H](C(=O)N[C@@H](CC(N)=O)C(=O)N[C@H](C(=O)NCC(=O)N1CCC[C@H]1C(=O)N[C@@H](CCCNC(=N)N)C(=O)N[C@H](C(=O)N[C@@H](Cc1ccc(O)cc1)C(N)=O)[C@@H](C)O)C(C)C)[C@@H](C)O` [Example 130] (H-K([γGlu-γGlu-C20 diacid])CNTATCATQRLADFLRHSSPNFGAIPSSTNVGPRTY-NH2; disulfide 2-7 (inferred); N-terminus assumed), for which the “Ratio hCT/hAmylin binding” value in data set [1] (setting [3]), in data set [1] (setting [4]), in data set [1] (setting [5]), in data set [1] (setting [6]), in data set [1] (setting [7]) and in data set [1] (setting [8]) was 280.0 throughout. Further, the “Ratio hCT/hAmylin binding” value in data set [1] (setting [9]) was 280.0. In addition, the solubility at 18 h in data set [2] (setting [10]), in data set [2] (setting [11]), in data set [2] (setting [12]), in data set [2] (setting [13]), in data set [2] (setting [14]) and in data set [2] (setting [15]) was not below 200 µM throughout. Also, the solubility at 18 h in data set [2] (setting [16]) and in data set [2] (setting [17]) was not below 200 µM each time. In addition, the “Food intake reduction 0-24 h 30 nmol/kg (%)” value with Sprague Dawley (SD) rats stood at 80%. In the data set with Sprague Dawley (SD) rats, the “Food intake reduction 24-48 h 30 nmol/kg (%)” value was 27%. The half-inhibitory concentration (IC50) at rat calcitonin receptor came out at 0.223 µM.

In the case of `CC[C@H](C)[C@H](NC(=O)[C@H](C)NC(=O)CNC(=O)[C@H](Cc1ccccc1)NC(=O)[C@H](CC(N)=O)NC(=O)[C@@H]1CCCN1C(=O)[C@H](CO)NC(=O)[C@H](CO)NC(=O)[C@H](Cc1c[nH]cn1)NC(=O)[C@H](CCCNC(=N)N)NC(=O)[C@H](CC(C)C)NC(=O)[C@H](Cc1ccccc1)NC(=O)[C@H](CC(N)=O)NC(=O)[C@H](C)NC(=O)[C@H](CC(C)C)NC(=O)[C@H](CCCNC(=N)N)NC(=O)[C@H](CCC(N)=O)NC(=O)[C@@H](NC(=O)[C@H](C)NC(=O)[C@@H]1CSSC[C@H](NC(=O)[C@H](CCCCN)NC(=O)CC[C@H](NC(=O)CCCCCCCCCCCCCCCCCCC(=O)O)C(=O)O)C(=O)N[C@@H](CC(N)=O)C(=O)N[C@@H]([C@@H](C)O)C(=O)N[C@@H](C)C(=O)N[C@@H]([C@@H](C)O)C(=O)N1)[C@@H](C)O)C(=O)N1CCC[C@H]1C(=O)N[C@@H](CO)C(=O)N[C@@H](CO)C(=O)N[C@H](C(=O)N1CCC[C@H]1C(=O)N[C@H](C(=O)NCC(=O)N[C@@H](CO)C(=O)N[C@@H](CCC(=O)O)C(=O)N[C@H](C(=O)N[C@@H](Cc1ccc(O)cc1)C(N)=O)[C@@H](C)O)C(C)C)[C@@H](C)O` [Example 28] ({C20 diacid-γGlu}-KCNTATCATQRLANFLRHSSPNFGAIPSSTPVGSETY-NH2; disulfide 2-7 (inferred)), the IC50 in data set [1] (Table 4, read-out: hAmylin-R bind IC50) is 0.00061 µM; on rat calcitonin receptor, 0.0549 µM. Moreover, the “Ratio hCT/hAmylin binding” value in data set [1] (setting [3]), in data set [1] (setting [4]), in data set [1] (setting [5]), in data set [1] (setting [6]), in data set [1] (setting [7]) and in data set [1] (setting [8]) was 20.5 in each case. Moreover, in data set [1] (setting [9]), the “Ratio hCT/hAmylin binding” value is recorded as 20.5. The solubility at 18 h in data set [2] (setting [10]), in data set [2] (setting [11]), in data set [2] (setting [12]), in data set [2] (setting [13]), in data set [2] (setting [14]) and in data set [2] (setting [15]) was not below 200 µM in each case. Moreover, the solubility at 18 h in data set [2] (setting [16]) and in data set [2] (setting [17]) was not below 200 µM throughout. Also, in the data set on Sprague Dawley (SD) rats, the “Food intake reduction 0-24 h 30 nmol/kg (%)” value amounted to 49%. Also, the “Food intake reduction 24-48 h 30 nmol/kg (%)” value in the data set on Sprague Dawley (SD) rats was 38%.

(Values after patent US9023789B2, “Amylin analogs and pharmaceutical compositions thereof” (Novo Nordisk A/S, priority 2012, dated 2015).)
